From publication PMC5806882, “Structural and biochemical characterization of the biuret hydrolase (BiuH) from the cyanuric acid catabolism pathway of Rhizobium leguminasorum bv. viciae 3841” (PLoS ONE, 2018)

Target: biuret hydrolase (BiuH) (Rhizobium johnstonii, UniProt Q1M7F4, C175S)
Assay: X-ray crystal structure, […] Å
Type: binding

Sequence of biuret hydrolase (BiuH) (Q1M7F4 whole entry C175S): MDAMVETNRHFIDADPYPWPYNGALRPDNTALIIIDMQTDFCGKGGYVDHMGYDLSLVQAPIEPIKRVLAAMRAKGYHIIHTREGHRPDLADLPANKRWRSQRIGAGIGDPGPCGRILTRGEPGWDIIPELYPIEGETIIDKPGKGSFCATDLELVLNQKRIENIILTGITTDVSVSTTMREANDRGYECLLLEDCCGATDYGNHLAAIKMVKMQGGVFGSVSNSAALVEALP

## NC(=O)NC(N)=O [biuret]
  X-ray crystal structure, 2.22 Å: A structure of the inactive Cys175Ser variant with biuret in the active site was obtained (PDB ID: 6AZQ).
